Consider 1 molecule from patent publication US11471387B2, “Oral cavity care method and oral cavity care system” (priority 2017, dated 2022).

Data set [1] deals with tissue cells (FIGS. 6A, 6C). The data set can be described thus: Safety test, survival rate of tissue cells (FIGS. 6A and 6C).
Data set [2] deals with tissue cells (FIGS. 6B, 6D). The data set is described as follows: Safety test, survival rate of tissue cells (FIGS. 6B and 6D).

For `[H]/N=C(\N/C(=N/[H])NCCCCCCNC(=N)NC(=N)Nc1ccc(Cl)cc1)Nc1ccc(Cl)cc1` [chlorhexidine], the “50% survival rate of tissue cells (time)” value worked out at 10.8 h in data set [1] (FIG. 6A) and 8.4 h in data set [2] (FIG. 6B). Also, the cytotoxicity with time entry in data set [1] (tissue cells of FIGS. 6A/6C) and in data set [2] (tissue cells of FIGS. 6B/6D) was “cytotoxic with time” throughout.
